Read-outs that look alike come from different tables or passages of the source.
Tests used:
[1] = Oral PK study of Lys-Amp, hArg-Amp, Orn-Amp and Cit-Amp (Example 9); details: rat; for % Tmax: relative to Lys-Amp
[2] = Average of 4 oral PK studies of Lys-Amp and hArg-Amp (Example 7, Table 3); details: average of 4 oral studies, n=20; relative to Lys-Amp
[3] = Oral gavage PK study of Lys-Amp and hArg-Amp, plasma d-amphetamine by ELISA (Example 7); details: rat, relative to Lys-Amp
[4] = Intranasal PK study of d-amphetamine, hArg-Amp, Orn-Amp (Example 10); details: rat; for % Tmax: relative to d-amp
[5] = rat, oral; relative to hArg-Amp
[6] = Intravenous PK study of d-amphetamine, hArg-Amp, Orn-Amp (Example 11); details: rat, relative to d-amp
[7] = PK of d-amphetamine after parenteral (intranasal, intravenous) administration of hArg-Amp (Example 1)
[8] = plasma d-amphetamine, given in minutes

Row | Compound | Tmax compared to Lys-Amp [1] | Tmax [1, 8] | % Tmax [1] | Cmax ([1]; plasma d-amphetamine) | % Tmax [2] | % Tmax [3] | Tmax [4, 8] | % Tmax [4] | % Tmax [5] | % Tmax [6] | release of amphetamine [7]
1 | 1-citrulline-d-amphetamine hydrochloride [Cit-Amp] | significantly shifted the Tmax | 15 m | 25% |  |  |  |  |  |  |  | 
2 | l-lysine-d-amphetamine [Lys-Amp, reference compound] |  |  | 100% | 59 ng/mL | 100% | 100% |  |  |  |  | 
3 | C[C@H](N)Cc1ccccc1 [d-amp, d-amphetamine] |  |  |  |  |  |  | 15 m | 100% |  |  | 
4 | C[C@@H](Cc1ccccc1)NC(=O)[C@@H](N)CCCCN=C(N)N.Cl.Cl [hArg-Amp, l-homoarginine-d-amphetamine dihydrochloride] |  |  | 200% |  | 400% | 133% |  | 1600% | 100% | 100% | < 50%
